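Compound exposure: 48 hours, 5 concentrations, 96-well plates. GI50 = concentration required for 50% inhibition of growth.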 Calls of active or inactive are those of the source. No stated cut-off is given here; in the data, active = GI50 up to about 1.1 µM and inactive = higher.
Legend:
Assay in all cases: NCI tumour cell line growth inhibition, 48 h
CCRF-CEM = system: CCRF-CEM
NCI/ADR-RES = system: NCI/ADR-RES
HOP-62 = system: HOP-62
LOX IMVI = system: LOX IMVI
HOP-92 = system: HOP-92
OVCAR-4 = system: OVCAR-4
A549 = system: A549
OVCAR-5 = system: OVCAR-5
SR = system: SR
SN12C = system: SN12C
SK-OV-3 = system: SK-OV-3
RPMI-8226 = system: RPMI-8226
HT-29 = system: HT-29
786-0 = system: 786-0
RXF 393 = system: RXF 393
SK-MEL-28 = system: SK-MEL-28
HCT-116 = system: HCT-116
SF-539 = system: SF-539
MCF7 = system: MCF7
NCI-H522 = system: NCI-H522

Measured: GI50

COc1ccc(/C=C2\CCS(=O)(=O)c3ccccc3C2=O)cc1
inactive: CCRF-CEM 20 µM | NCI/ADR-RES 20.1 µM | HOP-62 36.3 µM | LOX IMVI 20.4 µM | HOP-92 36 µM | OVCAR-4 24.5 µM | A549 39.4 µM | OVCAR-5 26.7 µM | SR 8.55 µM | SN12C 28.3 µM | SK-OV-3 38.3 µM | RPMI-8226 19.3 µM | HT-29 18.8 µM | 786-0 18.3 µM | RXF 393 22.6 µM | SK-MEL-28 26.9 µM | HCT-116 17.1 µM | SF-539 21.1 µM | MCF7 35.4 µM

C[C@@H]1C[C@@H](O)[C@@]2(O)C13CC(=O)OC(C3)[C@@H](C)[C@@]2(C)CO (some centres undefined)
inactive: NCI/ADR-RES > 100 µM | HOP-62 > 100 µM | LOX IMVI > 100 µM | HOP-92 > 100 µM | OVCAR-4 > 100 µM | A549 > 100 µM | NCI-H522 > 100 µM | OVCAR-5 > 100 µM | SR > 100 µM | SN12C > 100 µM | SK-OV-3 > 100 µM | RPMI-8226 > 100 µM | HT-29 > 100 µM | 786-0 > 100 µM | RXF 393 > 100 µM | SK-MEL-28 > 100 µM | HCT-116 > 100 µM | SF-539 > 100 µM | MCF7 > 100 µM

CCN(CC)CCN1C(=O)c2cccc3cc(N)cc(c23)C1=O
inactive: CCRF-CEM 6.28 µM | NCI/ADR-RES 7.21 µM | HOP-62 5.45 µM | HOP-92 35.8 µM | OVCAR-4 12.4 µM | A549 5.57 µM | NCI-H522 6.43 µM | OVCAR-5 3.06 µM | SR 3.32 µM | SN12C 4.31 µM | SK-OV-3 8.53 µM | RPMI-8226 7.35 µM | HT-29 3.24 µM | 786-0 5.32 µM | RXF 393 14.2 µM | SK-MEL-28 19.3 µM | HCT-116 4.16 µM | SF-539 5.09 µM | MCF7 4.39 µM

CCOC(=O)[C@@]12C[C@](/C=C/OC)(O[Si](C)(C)C)[C@@]13c1cc(OC)c(OC)cc1CCN3C(=O)C2O (some centres undefined)
inactive: CCRF-CEM > 100 µM | NCI/ADR-RES > 100 µM | HOP-62 > 100 µM | LOX IMVI > 100 µM | HOP-92 > 100 µM | OVCAR-4 > 100 µM | A549 > 100 µM | OVCAR-5 > 100 µM | SR > 100 µM | SN12C > 100 µM | SK-OV-3 > 100 µM | RPMI-8226 > 100 µM | HT-29 > 100 µM | 786-0 > 100 µM | RXF 393 > 100 µM | SK-MEL-28 > 100 µM | HCT-116 > 100 µM | SF-539 > 100 µM | MCF7 > 100 µM

CCN1C(NN)=NS(=O)(=O)c2ccccc21
inactive: CCRF-CEM > 100 µM | NCI/ADR-RES > 100 µM | HOP-62 > 100 µM | LOX IMVI > 100 µM | HOP-92 > 100 µM | OVCAR-4 > 100 µM | A549 > 100 µM | NCI-H522 > 100 µM | OVCAR-5 > 100 µM | SR > 100 µM | SN12C > 100 µM | SK-OV-3 > 100 µM | HT-29 > 100 µM | 786-0 > 100 µM | RXF 393 > 100 µM | SK-MEL-28 > 100 µM | HCT-116 > 100 µM | SF-539 > 100 µM | MCF7 > 100 µM

C[C@H]1SC(c2ccc(Cl)cc2Cl)N(NC(=O)c2ccncc2)C1=O (some centres undefined)
inactive: CCRF-CEM 30.1 µM | NCI/ADR-RES 36.9 µM | HOP-62 33.7 µM | HOP-92 45.7 µM | NCI-H522 22.6 µM | OVCAR-5 28.8 µM | SR 55.8 µM | SN12C 45.9 µM | SK-OV-3 65.2 µM | RPMI-8226 35.6 µM | HT-29 53 µM | RXF 393 14.7 µM | SK-MEL-28 31.3 µM | HCT-116 20 µM | MCF7 8.59 µM

CCOC(=O)c1[nH]cc(C)c1-c1ccn(-c2ccccc2)c1
inactive: CCRF-CEM 19.2 µM | NCI/ADR-RES 36.2 µM | HOP-62 > 100 µM | LOX IMVI 41.8 µM | HOP-92 21.5 µM | OVCAR-4 41.9 µM | A549 59.6 µM | NCI-H522 20.1 µM | OVCAR-5 > 100 µM | SR 15.6 µM | SN12C 89.7 µM | SK-OV-3 > 100 µM | HT-29 29.6 µM | 786-0 53.2 µM | RXF 393 36.8 µM | SK-MEL-28 96.2 µM | HCT-116 42.7 µM | SF-539 > 100 µM | MCF7 61 µM
